{"source": "paper PMC12027730", "about": "“Lapatinib-Resistant HER2+ Breast Cancer Cells Are Associated with Dysregulation of MAPK and p70S6K/PDCD4 Pathways and Calcium Management, Influence of Cryptotanshinone” (International Journal of Molecular Sciences, 2025)", "molecular_target": "T1, eIF4AI (Homo sapiens, UniProt P60842)", "T1 construct": "gene EIF4A1", "T1 sequence (P60842 2-406)": "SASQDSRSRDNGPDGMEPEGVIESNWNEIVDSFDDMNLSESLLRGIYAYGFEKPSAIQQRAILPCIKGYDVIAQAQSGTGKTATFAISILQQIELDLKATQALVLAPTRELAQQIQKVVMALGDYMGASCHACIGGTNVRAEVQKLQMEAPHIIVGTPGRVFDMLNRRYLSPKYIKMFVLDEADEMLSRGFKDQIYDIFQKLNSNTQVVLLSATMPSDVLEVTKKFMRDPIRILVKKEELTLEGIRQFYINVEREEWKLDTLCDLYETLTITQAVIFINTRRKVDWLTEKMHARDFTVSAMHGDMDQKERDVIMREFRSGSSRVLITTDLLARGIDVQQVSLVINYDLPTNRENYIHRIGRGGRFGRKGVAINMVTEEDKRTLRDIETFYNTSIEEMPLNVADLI", "assay": "synchronous fluorescence quenching, eIF4A […] with Cry […]", "type": "binding"}
{"smiles": "C[C@H]1COC2=C1C(=O)C(=O)c1c2ccc2c1CCCC2(C)C", "note": "[Cry, Cryptotanshinone]", "values": [{"measurement": "synchronous fluorescence quenching, eIF4A 12 μM with Cry 0-50 μM", "value": "A Cry dose-dependent fluorescence emission decrease in eIF4A associated with the induction of the quenching phenomena was observed"}]}
